# According to patent publication US11491245B2, “Gadolinium chelate compounds for use in magnetic resonance imaging” (BAYER PHARMA AKTIENGESELLSCHAFT, priority 2015, dated 2022):
# “Also recorded” adds a separate entry of the source.
# Tests used:
# [1] = Relaxivity measurements at 1.41 T; format: physicochemical
# Method: Relaxivity measurements at 1.41 T were performed using a MiniSpec mq60 spectrometer (Bruker Analytik, Karlsruhe, Germany) operating at a resonance frequency of 60 MHz and a temperature of 37° C. The T1 relaxation times were determined using the standard inversion recovery (IR) method with a fixed relaxation delay of at least 5×T1. The variable inversion time (TI) was calculated automatically by the standard software of the MiniSpec mq60 (8 steps). The T2 measurements were done by using a Carr-Purcell-Meiboom-Gill (CPMG) pulse sequence, applying a relaxation delay of at least 5×T1.
# Each relaxivity measurement was performed using three different Gd concentrations (3 concentrations between 0.05 and 2 mM). The T1 and T2 relaxation times of the example compounds 1-10 were measured in different media for example in water, fetal bovine serum (FBS, Sigma, F7524) and human plasma.
# (§1) Human plasma preparation: For each experiment fresh blood was taken from a volunteer using 10 mL citrate-tubes (Sarstedt S-Monovette 02.1067.001, 10 mL, Citrate). The 10 mL citrate-tubes were carefully inverted 10 times to mix blood and anticoagulant and centrifuged for 15 minutes at 1811 g at room temperature (Eppendorf, Centrifuge 5810R).
# The relaxivities ri (where i=1, 2) were calculated on the basis of the measured relaxation rates Ri in water and plasma: Ri=Ri(0)+ri[CGd], where Ri(0) represent the relaxation rate of the respective solvent and CGd the concentration of the compound normalized to the Gadolinium. The Gadolinium concentrations of the investigated solutions were verified by Inductively Coupled Plasma Mass Spectroscopy (ICP-MS Agilent 7500a, Waldbronn, Germany).
# [2] = Relaxivity measurements at 3.0 T; format: physicochemical; conditions: 37° C., normalized to Gd, average ± standard deviation
# Method: Relaxivity measurements at 3.0 T were performed with a whole body 3.0 T MRI Scanner (Philips Intera, Philips Healthcare, Hamburg, Germany) using a knee-coil (SENSE-Knee-8, Philips Healthcare, Hamburg, Germany). The sample tubes (CryoTubetm Vials, Thermo Scientific 1.8 mL, Roskilde, Denmark) were positioned in 3 rows of 4 and 5 tubes in a plastic holder in a box filled with water. The temperature was adjusted to 37° C. For the MRI sequence, the shortest possible echo-time (TE) with 7.46 milliseconds was used. The inversion times were chosen to optimize the sequence to measure T1 values corresponding to the estimated T1 range of all relaxation times of contrast media containing solutions. The following inversion times (TIs) were applied: 50, 100, 150, 200, 300, 500, 700, 1000, 1400, 2100, 3200, and 4500 milliseconds. The sequence was run with a constant relaxation delay of 3.4 seconds after the registration of the last echo (variable TR in the range from 3450 to 7900 milliseconds). For details of the fit procedure, see Rohrer et. al. (Invest. Radiol. 2005; 40, 11: 715-724). The experimental matrix of the phantom measurement was 320×320.
# The relaxivities were evaluated using three different concentrations of each compound (3 concentrations between 0.05 and 2 mM).
# as §1, with “The T1 relaxation times of the Example compounds 1-6 were measured in water and human plasma. Human” for “Human”
# The relaxivities ri (where i=1, 2) were calculated on the basis of the measured relaxation rates Ri in water and plasma: Ri=Ri(0)+ri[CGd], where Ri(0) represent the relaxation rate of the respective solvent and CGd the concentration of the compound normalized to the Gadolinium (Table 2).
# [3] = Excretion and residual organ gadolinium concentration; format: in vivo, male rats (Han-Wistar); conditions: male rats, 0.1 mmol Gd/kg i.v.
# Method: The excretion and organ distribution of Example 3 were determined in male rats (Han-Wistar, 100-110 g, n=3). The compound was administered as a sterile aqueous solution (54 mmol Gd/L) as a bolus in the tail vein of the animals. The dose was 0.1 mmol Gd/kg. Urine was collected in the following time periods 0-1 h, 1-3 h, 3-6 h, 6-24 h, 1-2 d and 2-5 d post injection and feces 0-1 d, 1-2 d and 2-5 d post injection. As a control, 3 animals were treated in the same way with Gadovist®, a low molecular weight contrast agent. On day 7 the animals were sacrificed and the following organs were excised: blood, liver, kidney, spleen, heart, lung, brain, mesenteric lymph nodes, muscle, skin, stomach, gut, bone and bone marrow. The remaining carcass was freeze dried and ground to a fine powder. The Gd concentration in the organs and the carcass was determined by ICP-MS (ICP-MS Agilent 7500a, Waldbronn, Germany). The Example 3 is excreted quickly via the kidneys. After 3 h 95.8%±3.4% of the injected dose was found in urine and 96.9%±3.7% after 5 days. About 1.4%±0.6% was excreted via the feces. Less than 0.5% of the administered dose was present in the body 7 days after the injection. The individual organs contained less than 0.03% of the injected dose, except the kidney which is the excretion organ.
# GS9L brain tumors = assay: Contrast-enhanced MRI of brain tumors in rats; format: in vivo, male Fisher rats (F344); conditions: GS9L rat brain tumors, 0.1 mmol Gd/kg bw vs Reference compound 1 0.1 mmol Gd/kg bw, FIG. 11A
# [4] = Gadolinium release after the addition of zinc and phosphate (transmetallation); conditions: phosphate buffer pH 7.00, 2.5 mmol/L gadolinium complex, 2.5 mmol/L ZnCl2, 37° C., up to 72 h, FIG. 2
# Method: The technique is based on measurement of the evolution of the water proton paramagnetic longitudinal relaxation rate in phosphate buffer (pH 7.00, 26 mmol/L, KH2PO4 Merck, Hessen, Germany) containing 2.5 mmol/L gadolinium complex and 2.5 mmol/L ZnCl2 Sigma-Aldrich, Munich, Germany). […] The mixture was vigorously stirred, and 300 μL were taken out for the relaxometric study at 0 min, 60 min, 120 min, 3 h, 4 h, 5 h, 24 h, 48 h and 72 h. The measurements were performed on a MiniSpec mq60 spectrometer (Bruker Analytik, Karlsruhe, Germany) at 60 MHz and 37° C.
structure (smiles),measurement,setting,value
"CC(C(=O)NCC(=O)NCC(CNC(=O)CNC(=O)C(C)N1CCN(CC(=O)[O-])CCN(CC(=O)[O-])CCN(CC(=O)[O-])CC1)(CNC(=O)CNC(=O)C(C)N1CCN(CC(=O)[O-])CCN(CC(=O)[O-])CCN(CC(=O)[O-])CC1)CNC(=O)CNC(=O)C(C)N1CCN(CC(=O)[O-])CCN(CC(=O)[O-])CCN(CC(=O)[O-])CC1)N1CCN(CC(=O)[O-])CCN(CC(=O)[O-])CCN(CC(=O)[O-])CC1.[Gd+3].[Gd+3].[Gd+3].[Gd+3] (stereo not drawn) [Example 3, Tetragadolinium [4,10-bis(carboxylatomethyl)-7-{3,6,12,15-tetraoxo-16-[4,7,10-tris-(carboxylatomethyl)-1,4,7,10-tetraazacyclododecan-1-yl]-9,9-bis({[({2-[4,7,10-tris-(carboxylatomethyl)-1,4,7,10-tetraazacyclododecan-1-yl]propanoyl}amino)acetyl]-amino}methyl)-4,7,11,14-tetraazaheptadecan-2-yl}-1,4,7,10-tetraazacyclododecan-1-yl]acetate]",r1 FBS,"[1]; fetal bovine serum, 1.41 T, 37° C., normalized to Gd",11.5 L/mmol/s
same,r1 human plasma,"[1]; human plasma, 1.41 T, 37° C., normalized to Gd",11.8 L/mmol/s
same,relaxivity relative to reference compound 1,[1]; see Example A,approximately 2 fold
same,r1 water,"[1]; water, 1.41 T, 37° C., normalized to Gd",10.1 L/mmol/s
same,r1 human plasma,[2]; human plasma,10.2 ± 0.2 L/mmol/s
same,r1 water,[2]; water,9.2 ± 0.3 L/mmol/s
same,Feces excretion 0-1 d post injection,[3],1.13 ± 0.62% Dose
same,Feces excretion 1-2 d post injection,[3],0.10 ± 0.02% Dose
same,Feces excretion 2-5 d post injection,[3],0.13 ± 0.01% Dose
same,Total recovery,[3],98.8 ± 3.1% Dose
same,Urine excretion 0-1 h post injection,[3],90.36 ± 4.4% Dose
same,Urine excretion 1-3 h post injection,[3],5.43 ± 1.04% Dose
same,Urine excretion 1-2 d post injection,[3],0.14 ± 0.01% Dose
same,Urine excretion 2-5 d post injection,[3],0.34 ± 0.03% Dose
same,Urine excretion 3-6 h post injection,[3],0.46 ± 0.38% Dose
same,Urine excretion 6-24 h post injection,[3],0.17 ± 0.02% Dose
same,administered dose present in the body 7 days after the injection,[3],Less than 0.5%
same,excreted via the feces,[3],About 1.4%
same,Σ organs and carcass 7 d post injection,[3],0.49 ± 0.01% Dose
same,injected dose in the individual organs (except the kidney),[3]; 7 days,less than 0.03%
same,injected dose found in urine after 3 h,[3]; cumulative,95.8%
same,injected dose found in urine after 5 days,[3]; cumulative,96.9%
same,lesion-to-brain contrast at the same dose,GS9L brain tumors,higher lesion-to-brain contrast and an excellent demarcation of the tumor rim
same,stability against transmetallation (relative longitudinal relaxation rate R1p(t)/R1p(0) versus time),[4],comparable to the high stability macrocyclic Reference compound 1 (Gadovist®); also recorded: comparable to the high stability of Reference compound 1 (Gadovist®)
